Measurements as given in US10174067B2, “Type of cytidine derivative and application thereof” (priority 2014, dated 2019).
Marks after values point to notes of the source that are not given here.

How the values were obtained:
[1] = Protocol: To determine the growth inhibition effect and toxicity of the cytidine derivative samples of the present invention on the transplanted tumor of nude mice bearing colon cancer HCT-116.
The corresponding amount of test substance was taken in a 5 mL glass tube and dissolved in ethanol with a 5 mm magnetic stirrer for stirring. After dissolving completely, Cremophor EL was added with continuous stirring. The marked amount of saline was added and mixed evenly before use. The volume ratio of ethanol, Cremophor EL, and physiological saline was 5:5:90.
Varieties and lines; Balb/c Nude mice; level: SPF; sex: female.
4.2 Animal inoculation and grouping: Each nude mouse was inoculated subcutaneously with 0.1 mL of cell suspension (3×10^6 cell/mouse) at right side of hind limb in a sterile stale. When the tumor grew to about 60-150 mm^3, the nude mice with similar tumor volume and desirable shape were selected (it would be better to select single spherical shape, no irregular shape or multiple tumors grouped together) for grouping, 6 mice a group. The grouping is as follows:
The control group, namely the model control group, was injected with a mixture of ethanol, Cremophor EL, and saline (5:5:90).
Those mice were weighed three times a week.
All clinical symptoms of each animal should be recorded at the beginning of the test and during the test. The observations should be made at the same time each day.
An animal would be killed by CO2 when its weight loss was more than 20%, when it was about to die, or when its tumor volume exceeded 2800 mm^3. The tumor was separated and weighed, and the animal was autopsied and observed to evaluate and record whether there were pathological changes in the organs.
The data were expressed as Mean±SEM unless specially provided; Non-pairing T test was performed for the data between the two groups. P<0.05 was considered as significant difference.

[2] = test system: HCT-116 colon cancer xenografts; experiment: Tumor growth inhibition of HCT-116 colon cancer xenografts in tumor-bearing nude mice (tumor volume, TGI %, RTV, T/C %); assay type: in vivo, Balb/c Nude mice
Protocol: 4.1 Tumor cells: colon cancer HCT-116 cells, purchased from the Institute of Cell Biology, Chinese Academy of Sciences. The cells were incubated by F-12 medium (containing 10% FBS) in carbon dioxide incubator at 37° C. and in saturated humidity, with 5% CO2 and 95% air in volume fraction. Before inoculation, the cells at logarithmic phase were taken, and digested with 0.25% trypsin, washed once with PBS and resuspended in PBS for counting. The cells were resuspended in serum-free medium and adjusted to about 3×10^7 cell/mL.
The grouping is as follows:
The formations of tumor at the inoculation site of each group of nude mice were observed. The diameter of tumor nodule (D) was measured three times a week with round hole ruler, and the volume of tumor nodule (V) was calculated according to the following formula: […].
Anti-tumor activity was evaluated by tumor growth inhibition rate TGI (%) and relative tumor proliferation rate T/C (%).
The relative tumor volume (RTV) was calculated as: RTV=Vt/V0, where V0 was the tumor volume when they were grouped and administered, and Vt was the tumor volume at the time of measurement.
The relative proliferation rate T/C (%) was calculated as: […].
TRTV: RTV of the treatment group; CRTV: RTV of the control group.
P<0.05 was considered as significant difference.

[3] = Day 0, G3-G9 groups, single IP dose, Mean±SEM
[4] = Day 4, G3-G9 groups, single IP dose, Mean±SEM
[5] = Day 6, G3-G9 groups, single IP dose, Mean±SEM
[6] = Day 8, G3-G9 groups, single IP dose, Mean±SEM
[7] = Day 11, G3-G9 groups, single IP dose, Mean±SEM
[8] = Day 13, G3-G9 groups, single IP dose, Mean±SEM
[9] = Day 15, G3-G9 groups, single IP dose, Mean±SEM
[10] = Day 18, G3-G9 groups, single IP dose, Mean±SEM
[11] = Day 20, G3-G9 groups, single IP dose, Mean±SEM
[12] = Day 22, G3-G9 groups, single IP dose, Mean±SEM

CC(C)(C)OC(=O)Nc1ccn([C@@H]2O[C@H](COC(=O)Cn3cnc([N+](=O)[O-])c3)[C@@H](O)C2(F)F)c(=O)n1 [Compound G9, 5′-O-[2-(4-nitro-1H-imidazole)acetate]-4-N-(tert-butoxycarbonyl)-2′-deoxy-2′,2′-difluorocytidine]
Weight change rate, Day 0 [1, 3]: 0.00 ± 0.00% | Weight of mice, Day 0 [1, 3]: 20.55 ± 0.56 g | Weight change rate, Day 4 [1, 4]: −0.08 ± 3.14% | Weight of mice, Day 4 [1, 4]: 20.48 ± 0.57 g | Weight change rate, Day 6 [1, 5]: 2.53 ± 2.85% | Weight of mice, Day 6 [1, 5]: 21.02 ± 0.48 g | Weight change rate, Day 8 [1, 6]: 3.54 ± 3.17% | Weight of mice, Day 8 [1, 6]: 21.22 ± 0.51 g | Weight change rate, Day 11 [1, 7]: 5.18 ± 2.98% | Weight of mice, Day 11 [1, 7]: 21.55 ± 0.43 g | Weight change rate, Day 13 [1, 8]: 7.65 ± 3.18% | Weight of mice, Day 13 [1, 8]: 22.05 ± 0.42 g | Weight change rate, Day 15 [1, 9]: 5.50 ± 3.26% | Weight of mice, Day 15 [1, 9]: 21.60 ± 0.33 g | Weight change rate, Day 18 [1, 10]: 3.38 ± 3.55% | Weight of mice, Day 18 [1, 10]: 21.17 ± 0.46 g | Weight change rate, Day 20 [1, 11]: 2.91 ± 3.85% | Weight of mice, Day 20 [1, 11]: 21.05 ± 0.36 g | Weight change rate, Day 22 [1, 12]: 8.18 ± 4.15% | Weight of mice, Day 22 [1, 12]: 22.13 ± 0.47 g | Day 22 Mortality ([1]; Day 22, single IP dose (mg/kg)): 0% | clinical symptoms ([1]; after single IP dose, compared with model control group): no significant differences in clinical symptoms | Day 0 (RTV) [2, 3]: 1.00 ± 0.00 | Tumor volume, Day 0 [2, 3]: 42.31 ± 7.52** mm^3 | Day 4 (TGI %) ([2]; Day 4, G3-G9 groups, single IP dose): 80.77% | Day 4 (RTV) [2, 4]: 1.21 ± 0.16 | Tumor volume, Day 4 [2, 4]: 51.25 ± 10.24** mm^3 | Day 6 (TGI %) ([2]; Day 6, G3-G9 groups, single IP dose): 80.67% | Day 6 (RTV) [2, 5]: 1.82 ± 0.40 | Tumor volume, Day 6 [2, 5]: 81.69 ± 23.70** mm^3 | Day 8 (TGI %) ([2]; Day 8, G3-G9 groups, single IP dose): 79.22% | Day 8 (RTV) [2, 6]: 2.72 ± 0.82 | Tumor volume, Day 8 [2, 6]: 109.19 ± 29.60** mm^3 | Day 11 (TGI %) ([2]; Day 11, G3-G9 groups, single IP dose): 76.07% | Day 11 (RTV) [2, 7]: 4.91 ± 1.08 | Tumor volume, Day 11 [2, 7]: 192.42 ± 37.84** mm^3 | Day 13 (TGI %) ([2]; Day 13, G3-G9 groups, single IP dose): 72.93% | Day 13 (RTV) [2, 8]: 8.16 ± 1.87 | Tumor volume, Day 13 [2, 8]: 314.26 ± 60.92** mm^3 | Day 15 (TGI %) ([2]; Day 15, G3-G9 groups, single IP dose): 60.81% | Day 15 (RTV) [2, 9]: 13.83 ± 2.98 | Tumor volume, Day 15 [2, 9]: 553.69 ± 115.02** mm^3 | Day 18 (TGI %) ([2]; Day 18, G3-G9 groups, single IP dose): 51.00% | Day 18 (RTV) [2, 10]: 23.10 ± 5.36 | Tumor volume, Day 18 [2, 10]: 907.03 ± 187.09** mm^3 | Day 20 (TGI %) ([2]; Day 20, G3-G9 groups, single IP dose): 42.39% | Day 20 (RTV) [2, 11]: 31.85 ± 7.62 | Tumor volume, Day 20 [2, 11]: 1221.09 ± 228.29** mm^3 | Day 22 (RTV) [2, 12]: 42.35 ± 10.48 | Tumor volume, Day 22 [2, 12]: 1607.01 ± 297.45** mm^3 | relative tumor volume compared with the model control group ([2]; G4 and G5 Day 4 to Day 18, G7 Day 4 to Day 15 (p<0.05-0.01), G9 only Day 4 (p<0.05)): reduced significantly | maximum value of TGI % ([2]; day of maximum: G3 Day 8, G4 Day 11, G5 Day 11, G9 Day 4, G7 Day 8, single IP): 80.77%
